Test results: US8680367B2, “Method to prime plants in order to increase their pathogen resistance” (priority 2004, dated 2014)

Tested on: callose deposition
Assay: Callose deposition in Arabidopsis after Peronospora parasitica infection
Type: in vivo
Settings: positive control plants treated with BABA
Experimental: This is represented by the disease index on the Y axis. […] Resistance assays were performed as described previously (Plant Cell 1996, 8, 1225-1237; Plant cell 1998, 10, 1571-1580). B. KO of RKS4 (rks4-1; increased expression of N-terminus, see FIG. 4) also increases resistance to Peronospora parasitica, although less than the positive control induced with β-aminobutyric acid (BABA). Plants were scored using an arbitrary scale I-IV, in which I means normal to very slight symptoms and IV means severe symptoms to death. C. […] Both tests were performed as described in (Plant Cell., 2005, 17, 987-999).
Callose deposition was observed on Arabidopsis leaves after infection with Hyaloperonospora parasitica essentially as described by Ton et al. (Plant Cell (2005) 17(3):987-999).

For `CC(N)CC(=O)O` (stereo not drawn) [BABA, β-aminobutyric acid], the “Callose deposition upon treatment” value was “increased”.
